The results in this text go back to the CATMoS acute toxicity set (Mansouri et al. 2021).

Each structure is given as a SMILES string.

A short description of this data set: rat acute oral toxicity. The note with it: in vivo.

What is called LD50 is the dose at which mortality reaches 50%. Lower therefore signals greater toxicity. `COCCOCCOC` gave a 50% lethal dose (LD50) of 4760 mg/kg.

The compound `c1ccc(Oc2ccccc2)cc1` showed an LD50 of 2450 mg/kg.

`COc1nc(C)nc(NC(=O)NS(=O)(=O)c2ccccc2Cl)n1` showed an LD50 of 5540 mg/kg.

`CCCCCC(=O)O` returned an LD50 of 3000 mg/kg.

`C[Si](C)(Cl)Cl` yielded an LD50 of 595 mg/kg.

`Cl/C=C\CCl` came in with a median lethal dose (LD50) of 81.5 mg/kg.

The compound `NC1CCC(CC2CCC(N)CC2)CC1` (stereo unspecified) came in with a 50% lethal dose (LD50) of 350 mg/kg.

`N=C(NCCCCCCNC(=N)NC(=N)Nc1ccc(Cl)cc1)NC(=N)Nc1ccc(Cl)cc1` showed an LD50 of 1180 mg/kg.

Take `CCc1nn(C)c(C(=O)NCc2ccc(C(C)(C)C)cc2)c1Cl`: the 50% lethal dose (LD50) was 595 mg/kg.

`CCCCCCCCCCCCCCCCCCN`: the 50% lethal dose (LD50) is 1000 mg/kg.

In turn, `C/C=C/C=O` gave an LD50 of 165 mg/kg.

Compound `C=C(C)[C@@H]1CC=C(C)C(=O)C1` returned an LD50 of 4900 mg/kg.

For `CC1(C)C(C=C(Cl)Cl)C1C(=O)OC(C#N)c1ccc(F)c(Oc2ccccc2)c1` (stereo unspecified), the median lethal dose (LD50) turned out to be 270 mg/kg.

Compound `COCCCN` registered an LD50 of 598 mg/kg.

The compound `CN(C)c1ccccc1` registered a 50% lethal dose (LD50) of 951 mg/kg.

For `CO[Si](C)(OC)C1CCCCC1`, the LD50 was found to be 2760 mg/kg.

Regarding `Nc1ccc(O)c([N+](=O)[O-])c1`, the LD50 is 1470 mg/kg.

`Clc1ccc(Cl)cc1`: the LD50 is 500 mg/kg.

For the compound `CNC(=S)NN`, the median lethal dose (LD50) was 14 mg/kg.

With `CCCC(=O)OC(C(Cl)(Cl)Cl)P(=O)(OC)OC` (stereo unspecified), the LD50 was determined as 760 mg/kg.

In the case of `CCOC(=O)C(C)Oc1ccc(Oc2nc3ccc(Cl)cc3o2)cc1` (stereo unspecified), the 50% lethal dose (LD50) is 2360 mg/kg.

Regarding `NC(=O)c1ccccc1Cl`, the LD50 was 1250 mg/kg.

As for `CCC(C)Nc1c([N+](=O)[O-])cc(C(C)(C)C)cc1[N+](=O)[O-]` (stereo unspecified), the LD50 came out at 1050 mg/kg.

`O=c1ccc(=O)[nH][nH]1` registered a median lethal dose (LD50) of 3800 mg/kg.

`O=C(O)c1ccccc1C(=O)Nc1cccc2ccccc12` displayed an LD50 of 1770 mg/kg.

In turn, `CCC(=O)O` gave a median lethal dose (LD50) of 2600 mg/kg.

`COP(=O)(OC)O/C(C)=C/C(=O)N(C)C` had an LD50 of 9 mg/kg.

The compound `CCCCCCCCCCCCCCCCCC[N+](C)(C)CCCCCCCCCCCCCCCCCC` had a 50% lethal dose (LD50) of 11300 mg/kg.

`c1ccc(OP(Oc2ccccc2)Oc2ccccc2)cc1` registered a median lethal dose (LD50) of 444 mg/kg.

On to `Nc1ccccc1C(F)(F)F`, for which the LD50 was 1870 mg/kg.

Turning to `CCC[Si](OC)(OC)OC`, the median lethal dose (LD50) came out at 5170 mg/kg.

Compound `Clc1cc2c(c(Cl)c1Cl)Oc1cc(Cl)c(Cl)c(Cl)c1O2` displayed an LD50 of 0.8 mg/kg.

`CCCC(C)(COC(N)=O)COC(N)=O`: the 50% lethal dose (LD50) worked out at 794 mg/kg.

On to `C/C(=N\NC(=O)Nc1cc(F)cc(F)c1)c1ncccc1C(=O)O`, for which the 50% lethal dose (LD50) came out at 3300 mg/kg.

For `O=C1C[C@@H]2OCC=C3CN4CC[C@]56c7ccccc7N1[C@H]5[C@H]2[C@H]3C[C@H]46`, the LD50 worked out at 3.58 mg/kg.

`O=[N+]([O-])c1ccc(Cl)cc1`: the LD50 came to 460 mg/kg.

Regarding `CC(=O)OO`, the median lethal dose (LD50) stood at 39.9 mg/kg.

`CC[C@H]1OC(=O)C[C@@H](O)[C@H](C)[C@@H](O[C@@H]2O[C@H](C)[C@@H](O)[C@H](N(C)C)[C@H]2O)[C@@H](CCN2C[C@H](C)C[C@H](C)C2)C[C@@H](C)C(=O)C=CC(C)=C[C@@H]1CO[C@@H]1O[C@H](C)[C@@H](O)[C@@H](OC)[C@H]1OC` returned a 50% lethal dose (LD50) of 800 mg/kg.

In the case of `Cc1cccc(N)c1`, the LD50 stood at 450 mg/kg.

Take `COCCOCCO`: the 50% lethal dose (LD50) worked out at 5500 mg/kg.

Regarding `Cc1ccc2nc3sc(=O)sc3nc2c1`, the median lethal dose (LD50) is 1100 mg/kg.

With `CC1(C)CC(=O)CC(C)(C#N)C1` (stereo unspecified), the LD50 came to 61.6 mg/kg.

Take `CC(C)OC(=O)Nc1cccc(Cl)c1`: the LD50 came out at 1200 mg/kg.

Compound `CCCCC(Cc1cc(C(C)(C)C)c(O)c(C(C)(C)C)c1)(C(=O)OC1CC(C)(C)N(C)C(C)(C)C1)C(=O)OC1CC(C)(C)N(C)C(C)(C)C1` registered an LD50 of 1490 mg/kg.

The compound `CC(=O)CC(C)(C)O` came in with an LD50 of 2520 mg/kg.

As to `CCCN(CCC)CCC`, the LD50 was 72.5 mg/kg.

In the case of `CC(C)C1OCC=CCO1`, the 50% lethal dose (LD50) is 1000 mg/kg.

As for `N#C[N-2]`, the LD50 was found to be 158 mg/kg.

For the compound `CCC(=O)C(CC(C)N(C)C)(c1ccccc1)c1ccccc1` (stereo unspecified), the LD50 was determined as 30 mg/kg.

With `CI`, the LD50 was determined as 76 mg/kg.

Consider `O=C(CC(C(=O)OC1CCCCC1)S(=O)(=O)O)OC1CCCCC1` (stereo unspecified), for which the 50% lethal dose (LD50) came to 2830 mg/kg.

Regarding `CCOP(=S)(OCC)SCSCC`, the LD50 was 1 mg/kg.

Regarding `Cc1ccc2nc(-c3ccc(N)cc3)sc2c1`, the 50% lethal dose (LD50) was 5650 mg/kg.

Compound `CCCOCCO` showed a 50% lethal dose (LD50) of 3090 mg/kg.

Regarding `CON(C)C(=O)Nc1ccc(Cl)c(Cl)c1`, the median lethal dose (LD50) worked out at 1150 mg/kg.

Regarding `N#Cc1c(Cl)c(Cl)c(Cl)c(C#N)c1Cl`, the LD50 came to 242 mg/kg.

As to `CC(=O)C(C)=O`, the median lethal dose (LD50) was 1580 mg/kg.

`COC[C@H](C)N(C(=O)CCl)c1c(C)csc1C` gave an LD50 of 371 mg/kg.

The compound `CCSC(=O)N(CC)C1CCCCC1` came in with a median lethal dose (LD50) of 1680 mg/kg.

Regarding `CCCCCCCCCCCCCCCC[N+](C)(C)C`, the median lethal dose (LD50) is 450 mg/kg.

`Cc1ccc(C)c(C)c1`: the LD50 turned out to be 3280 mg/kg.

`O=C(Cl)CCCCl` came in with a median lethal dose (LD50) of 1350 mg/kg.

Take `CC(C)(C)N`: the LD50 is 44 mg/kg.

Turning to `O=[N+]([O-])c1cccc(O)c1`, the median lethal dose (LD50) amounted to 328 mg/kg.

`CCCOCC(C)OCC(C)O` (stereo unspecified) yielded a 50% lethal dose (LD50) of 1500 mg/kg.

The compound `Clc1ccc(C2(Cn3cncn3)CC(Br)CO2)c(Cl)c1` (stereo unspecified) came in with an LD50 of 328 mg/kg.
